Assay results from patent EP0529636B1, “Novel isatinoxime derivatives, their preparation and use” (NEUROSEARCH A/S, priority 1991, dated 1993).
pIC50: −log10 of the molar value.

Assays:
[1] = molecular target: AMPA ((RS)-α-amino-3-hydroxy-5-methyl-4-isoxazolepropionic acid) binding site; test: AMPA binding assay (T. Honoré et al., Neuroscience Letters 54, 27-32 (1985))
Experimental: In the same assay 1,2,3,6,7,8-hexahydro-3-(hydroxyimino)-N,N,7-trimethyl-2-oxobenzo[2,1-b:3,4-c']dipyrrole-5-sulfonamide has an IC50 of 0.3 µM.

[2] = system: AMPA-induced clonic seizures; test: AMPA-induced clonic seizures (AMPA seizure test); assay type: in vivo, female NMRI mice; settings: Mus musculus, iv; test compound i.v. 5 min before 0.3 µg icv AMPA; dose inhibiting 50% of the mice from having clonic seizures
Experimental: AMPA given icv (intracerebroventricular) (15 µg/kg) NMRI to mice induces clonic seizures which should be inhibited by non-NMDA receptor excitatory amino acid antagonists.
Test compound was given i.v. 5 min (or p.o. 30 min) before a 0.3 µg icv administration of AMPA to 10 female NMRI mice (weighing 24-26 g) per dose. The number of mice experiencing clonic seizures within the next 5 min was noted. An ED50 value was calculated as the dose inhibiting 50% of the mice from having clonic seizures.

Row | pIC50 [1] | Compound | ED50 [2] [mg/kg]
1 | 6.52 | CN1Cc2c(S(=O)(=O)N(C)C)cc3c(c2C1)NC(=O)C3=NO [1,2,3,6,7,8-hexahydro-3-(hydroxyimino)-N,N,7-trimethyl-2-oxobenzo[2,1-b:3,4-c']dipyrrole-5-sulfonamide] | 
2 | 5.40 | O=C1CCCc2c3c(cc([N+](=O)[O-])c2N1)C(=NO)C(=O)N3 [5-nitro-1H,6H-2,3,7,8,9,10-hexahydro-2,3,7-trioxo-azepino[2,3-g]indole-3-oxime] | 
3 | 6.00 | CN1Cc2ccc3c(c2C1)NC(=O)C3=NO [7-methyl-1,6,7,8-tetrahydrobenzo[2,1-b:3,4-c']dipyrrole-2,3-dione-3-oxime] | 8
